# Source: the Kinase Knowledgebase extract (Sharma et al. 2016)
# Target: CDK2 (UniProt P24941)
# Assay: Enzyme Assay
# Conditions: not given
row,Ki [µM],SMILES
1,3.2,Nc1nc(Nc2ccc(S(N)(=O)=O)cc2)sc1-c1nc(-c2cc3ccccc3s2)cs1
2,0.058,Nc1nc(Nc2ccc(S(N)(=O)=O)cc2)sc1-c1nc(C(=O)Nc2ccccc2)cs1
3,0.71,COc1cc(O)c(Br)c(-c2csc(-c3sc(Nc4cc(OC)c(OC)c(OC)c4)nc3N)n2)c1

# Same assay, conditions: concentration not given here
row,inhibition [%],SMILES
1,19,COc1cc(Nc2nc(N)c(-c3nc(-c4ccc5oc6ccccc6c5c4)cs3)s2)cc(OC)c1OC
2,8.3,CN(C)c1ccc(Nc2nc(N)c(-c3nc(-c4ccccc4[N+](=O)[O-])cs3)s2)cc1
3,-6,COc1cc(Nc2nc(N)c(-c3nc(-c4c(Cl)cc(C(F)(F)F)cc4Cl)cs3)s2)cc(OC)c1OC
4,4.4,CCOC(=O)c1ccccc1-c1csc(-c2sc(Nc3cc(OC)c(OC)c(OC)c3)nc2N)n1
5,0.1,COc1cc(Nc2nc(N)c(-c3nc(-c4ccc(Cl)cc4)cs3)s2)cc(OC)c1OC
6,6.6,COc1cc(Nc2nc(N)c(-c3nc(-c4cccc([N+](=O)[O-])c4)cs3)s2)cc(OC)c1OC
7,3.9,COc1cc(Nc2nc(N)c(-c3nc(-c4cc(C(=O)C(Cl)(Cl)Cl)n(C)c4)cs3)s2)cc(OC)c1OC
8,7.3,COc1cc(Nc2nc(N)c(-c3nc(-c4cc(C)sc4C)cs3)s2)cc(OC)c1OC
9,34.8,Cc1c(-c2csc(-c3sc(Nc4ccc(C(C)C)cc4)nc3N)n2)sc2ccc(Cl)cc12
10,15.1,CC(C)c1ccc(Nc2nc(N)c(-c3nc(-c4ccc(Cl)cc4Cl)cs3)s2)cc1
11,23.2,CCOC(=O)c1cc(-c2csc(-c3sc(Nc4cc(OC)c(OC)c(OC)c4)nc3N)n2)on1
12,20.9,CC(C)c1ccc(Nc2nc(N)c(-c3nc(-c4ccccc4)cs3)s2)cc1
13,-4.4,COc1cc(Nc2nc(N)c(-c3nc(-c4ccc(Cl)c(C)c4)cs3)s2)cc(OC)c1OC
14,-2.1,COc1cc(Nc2nc(N)c(-c3nc(-c4ccc(C)cc4)cs3)s2)cc(OC)c1OC
15,3.8,COc1cc(Nc2nc(N)c(-c3nc(-c4ccc(Cl)cc4Cl)cs3)s2)cc(OC)c1OC
16,11.8,COc1cc(OC)c(-c2csc(-c3sc(Nc4cc(OC)c(OC)c(OC)c4)nc3N)n2)c(O)c1Cl
17,11.3,CCCCCc1ccc(-c2csc(-c3sc(Nc4cc(OC)c(OC)c(OC)c4)nc3N)n2)cc1
18,4.2,COc1cc(Nc2nc(N)c(-c3nc(-c4ccc5c(c4)C(C)(C)CCC5(C)C)cs3)s2)cc(OC)c1OC
19,29,Nc1nc(Nc2ccc(S(N)(=O)=O)cc2)sc1C1=NC2(O)OCCC2S1 (stereo unspecified)
20,20.4,COc1cc(Nc2nc(N)c(-c3nc(-c4ccc(-c5ccccc5)cc4)cs3)s2)cc(OC)c1OC
21,1.6,COc1cc(Nc2nc(N)c(-c3nc(-c4ccccc4OC(C)=O)cs3)s2)cc(OC)c1OC

row,inhibition [%],SMILES
1,10.3,COc1cc(Nc2nc(N)c(-c3nc(-c4c(Cl)c(Cl)nc(Cl)c4Cl)cs3)s2)cc(OC)c1OC
2,-12.3,COc1cc(Nc2nc(N)c(-c3nc(-c4cccc(OC(=O)c5ccccc5)c4)cs3)s2)cc(OC)c1OC
3,-6.4,COc1ccccc1-c1csc(-c2sc(Nc3ccc(N(C)C)cc3)nc2N)n1
4,6.3,CCN(CC)c1ccc(-c2csc(-c3sc(Nc4cc(OC)c(OC)c(OC)c4)nc3N)n2)cc1
5,27.2,Cc1c(-c2csc(-c3sc(Nc4ccc(N(C)C)cc4)nc3N)n2)sc2ccc(Cl)cc12
6,-9.9,CCCCCc1ccc(-c2csc(-c3sc(Nc4ccc(S(N)(=O)=O)cc4)nc3N)n2)cc1
7,36,Nc1nc(Nc2ccc(S(N)(=O)=O)cc2)sc1-c1nc(-c2ccc(Cl)cc2Cl)cs1
8,1.2,COc1cc(Nc2nc(N)c(-c3nc(-c4ccc(C)cc4C)cs3)s2)cc(OC)c1OC
9,-4.3,CC(C)c1ccc(Nc2nc(N)c(-c3nc(-c4ccc5oc6ccccc6c5c4)cs3)s2)cc1
10,14.6,COc1cc(Nc2nc(N)c(-c3nc(-c4ccc(OC(=O)c5ccccc5)cc4)cs3)s2)cc(OC)c1OC
11,35,COc1cc(Nc2nc(N)c(-c3nc(-c4ccc(F)cc4)cs3)s2)cc(OC)c1OC
12,1.9,COc1cc(Nc2nc(N)c(-c3nc(-c4ccccc4[N+](=O)[O-])cs3)s2)cc(OC)c1OC
13,57,Nc1nc(Nc2ccc(S(N)(=O)=O)cc2)sc1-c1nc(-c2ccc(F)cc2F)cs1
14,13.3,N#Cc1ccc(-c2csc(-c3sc(Nc4ccc(S(N)(=O)=O)cc4)nc3N)n2)cc1
15,0,Nc1nc(Nc2ccc(S(N)(=O)=O)cc2)sc1-c1nc(-c2ccc(-c3ccccc3)cc2)cs1
16,7.3,CC(C)c1ccc(Nc2nc(N)c(-c3nc(-c4ccc(OC(=O)c5ccccc5)cc4)cs3)s2)cc1
17,-22.6,COc1ccc(-c2csc(-c3sc(Nc4ccc(C(C)C)cc4)nc3N)n2)c(OC)c1
18,-10.3,COc1cc(Nc2nc(N)c(-c3nc(-c4ccc(O)c(O)c4)cs3)s2)cc(OC)c1OC
19,3,COc1cc(Nc2nc(N)c(-c3nc(-c4ccc(O)cc4)cs3)s2)cc(OC)c1OC
20,5.3,COc1cc(Nc2nc(N)c(-c3nc(-c4cc(C(C)(C)C)c(O)c(C(C)(C)C)c4)cs3)s2)cc(OC)c1OC
21,17.5,COc1cc(Nc2nc(N)c(-c3nc(-c4cc(-c5ccc(Cl)c(Cl)c5)no4)cs3)s2)cc(OC)c1OC

row,inhibition [%],SMILES
1,4.6,COc1cc(Nc2nc(N)c(-c3nc(-c4ccccc4OC(=O)c4ccccc4)cs3)s2)cc(OC)c1OC
2,11.2,COc1cc(Nc2nc(N)c(-c3nc(-c4cc(-c5ccccc5)no4)cs3)s2)cc(OC)c1OC
3,-5,COc1cc(Nc2nc(N)c(-c3nc(-c4ccc(F)c(F)c4)cs3)s2)cc(OC)c1OC
4,9.65,COc1cc(Nc2nc(N)c(-c3nc(-c4sc5ccc(Cl)cc5c4C)cs3)s2)cc(OC)c1OC
5,27,Nc1nc(Nc2ccc(S(N)(=O)=O)cc2)sc1-c1nc(-c2ccc(F)cc2)cs1
6,15.6,COc1cc(Nc2nc(N)c(-c3nc(-c4ccc(C#N)cc4)cs3)s2)cc(OC)c1OC
7,13.9,COc1cc(Nc2nc(N)c(-c3nc(-c4ccc(C(F)(F)F)cc4)cs3)s2)cc(OC)c1OC
8,-7.5,COc1cc(Nc2nc(N)c(C3=NC(c4cc(F)c(C)c(Cl)c4)CS3)s2)cc(OC)c1OC (stereo unspecified)
9,-6,CCCCCc1ccc(-c2csc(-c3sc(Nc4ccc(N(C)C)cc4)nc3N)n2)cc1
10,11.6,COc1cc(Nc2nc(N)c(-c3nc(-c4ccc5ccccc5c4)cs3)s2)cc(OC)c1OC
11,17.8,Nc1nc(Nc2ccc(S(N)(=O)=O)cc2)sc1-c1nc(-c2cccc([N+](=O)[O-])c2)cs1
12,61.5,Cc1c(-c2csc(-c3sc(Nc4ccc(S(N)(=O)=O)cc4)nc3N)n2)sc2ccc(Cl)cc12
13,28.4,COc1cc(Nc2nc(N)c(-c3nc(-c4cc(C)c(O)c(C)c4)cs3)s2)cc(OC)c1OC
14,-6,COc1cc(Nc2nc(N)c(-c3nc(-c4cc5cc(Cl)ccc5o4)cs3)s2)cc(OC)c1OC
15,4.9,COc1ccc(-c2csc(-c3sc(Nc4cc(OC)c(OC)c(OC)c4)nc3N)n2)c(OC)c1
16,-4.5,Cc1onc(-c2ccccc2)c1-c1csc(-c2sc(Nc3ccc(S(N)(=O)=O)cc3)nc2N)n1
17,12.4,COc1cc(Nc2nc(N)c(-c3nc(-c4ccc(-c5ccc(Cl)cc5Cl)o4)cs3)s2)cc(OC)c1OC
18,-14.4,COc1cc(Nc2nc(N)c(-c3nc(-c4ccc([N+](=O)[O-])cc4)cs3)s2)cc(OC)c1OC
19,19.8,COc1cc(Nc2nc(N)c(-c3nc(-c4c(C)c(C)c(C)c(C)c4C)cs3)s2)cc(OC)c1OC
20,25,Cc1c(F)cc(-c2csc(-c3sc(Nc4ccc(S(N)(=O)=O)cc4)nc3N)n2)cc1Cl
21,13.6,COc1cc(Nc2nc(N)c(-c3nc(-c4c(-c5ccccc5)noc4C)cs3)s2)cc(OC)c1OC

row,inhibition [%],SMILES
1,21,COc1cc(Nc2nc(N)c(-c3noc(-c4ccsc4)n3)s2)cc(OC)c1OC
2,15.6,COc1cc(Nc2nc(N)c(-c3nc(-c4cccc(Br)c4)cs3)s2)cc(OC)c1OC
3,-2.7,COc1ccc2nc(-c3ccccc3)c(-c3csc(-c4sc(Nc5cc(OC)c(OC)c(OC)c5)nc4N)n3)cc2c1
4,27.1,CN(C)c1ccc(Nc2nc(N)c(-c3nc(-c4cccc(OC(=O)c5ccccc5)c4)cs3)s2)cc1
5,-0.2,COc1cc(Nc2nc(N)c(-c3nc(-c4cc(Br)c(Cl)s4)cs3)s2)cc(OC)c1OC
6,5.4,COc1cc(Nc2nc(N)c(-c3nc(-c4ccc5c(c4)OCCO5)cs3)s2)cc(OC)c1OC
7,-7.8,COc1cc(Nc2nc(N)c(-c3nc(-c4ccc5c(c4)CCC(=O)N5)cs3)s2)cc(OC)c1OC
8,-4.8,COc1cc(Nc2nc(N)c(-c3nc(-c4ccc(Cl)c([N+](=O)[O-])c4)cs3)s2)cc(OC)c1OC
9,23.1,COc1cc(Nc2nc(N)c(-c3nc(-c4sc5ccccc5c4C)cs3)s2)cc(OC)c1OC
10,26.7,COc1cc(Nc2nc(N)c(-c3nc(-c4ccc(CC(=O)O)s4)cs3)s2)cc(OC)c1OC
11,-3.5,COc1ccccc1-c1csc(-c2sc(Nc3cc(OC)c(OC)c(OC)c3)nc2N)n1
12,-0.4,COc1cccc(-c2csc(-c3sc(Nc4cc(OC)c(OC)c(OC)c4)nc3N)n2)c1
13,0,COC(=O)c1ccc(-c2csc(-c3sc(Nc4cc(OC)c(OC)c(OC)c4)nc3N)n2)cc1
14,13.8,CCc1cc2c(cc1-c1csc(-c3sc(Nc4cc(OC)c(OC)c(OC)c4)nc3N)n1)C(C)(C)CCC2(C)C
15,9.1,COc1cc(Nc2nc(N)c(-c3nc(-c4csc5ccccc45)cs3)s2)cc(OC)c1OC
16,14.3,COc1cc(Nc2nc(N)c(-c3nc(-c4ccc[nH]4)cs3)s2)cc(OC)c1OC
17,-2.5,CN(C)c1ccc(Nc2nc(N)c(-c3nc(-c4ccc5c(c4)CCC(=O)N5)cs3)s2)cc1
18,36,CCOC(=O)c1nc(-c2sc(Nc3ccc(S(N)(=O)=O)cc3)nc2N)sc1Cc1ccccc1

row,SMILES,inhibition [%]
1,COc1ccc(OC)c(-c2csc(-c3sc(Nc4cc(OC)c(OC)c(OC)c4)nc3N)n2)c1,12.2
2,COc1cc(Nc2nc(N)c(-c3nc(-c4ccc(Cl)c(Cl)c4)cs3)s2)cc(OC)c1OC,7.3
